What was measured:
Experiment in all cases: relative viability (nuclei count vs DMSO), 5 days (fraction); higher = more cells survive
Alpelisib + Crizotinib = compound: Cc1nc(NC(=O)N2CCC[C@H]2C(N)=O)sc1-c1ccnc(C(C)(C)C(F)(F)F)c1 [Alpelisib] + C[C@@H](Oc1cc(-c2cnn(C3CCNCC3)c2)cnc1N)c1c(Cl)ccc(F)c1Cl [Crizotinib] (partner 1 µM)
Outline: (§1)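 Lung cancer cell lines in 1536-well plates were dosed by pin tool the day after seeding, either with one drug alone or with a fixed anchor-drug dose plus five library-drug doses (not always all listed) in √10 steps. After 5 days, cells were fixed and their nuclei stained in one step (final 0.05% Triton X-100, 1% formaldehyde, 1 ug/ml Hoechst), then counted on 4× images. Relative viability is the nuclei count in treated wells divided by that in vehicle wells. Values are medians of duplicate plates.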

OSI-027 + Vorinostat = compound: COc1cccc2cc(-c3nc([C@H]4CC[C@H](C(=O)O)CC4)n4ncnc(N)c34)[nH]c12 [OSI-027] + O=C(CCCCCCC(=O)Nc1ccccc1)NO [Vorinostat] (partner 1 µM)
Outline: as §1

Alpelisib + Vorinostat = compound: Cc1nc(NC(=O)N2CCC[C@H]2C(N)=O)sc1-c1ccnc(C(C)(C)C(F)(F)F)c1 [Alpelisib] + O=C(CCCCCCC(=O)Nc1ccccc1)NO [Vorinostat] (partner 1 µM)
Outline: as §1

OSI-027 + Luminespib = compound: COc1cccc2cc(-c3nc([C@H]4CC[C@H](C(=O)O)CC4)n4ncnc(N)c34)[nH]c12 [OSI-027] + CCNC(=O)c1noc(-c2cc(C(C)C)c(O)cc2O)c1-c1ccc(CN2CCOCC2)cc1 [Luminespib] (partner 0.01 µM)
Outline: as §1

Cell Line	relative viability (Alpelisib + Crizotinib; first compound 0.04 µM)	relative viability (Alpelisib + Crizotinib; first compound 0.1265 µM)	relative viability (Alpelisib + Crizotinib; first compound 0.4 µM)	relative viability (Alpelisib + Crizotinib; first compound 1.265 µM)	relative viability (Alpelisib + Crizotinib; first compound 4 µM)	relative viability (OSI-027 + Vorinostat; first compound 0.01 µM)	relative viability (OSI-027 + Vorinostat; first compound 0.03162 µM)	relative viability (OSI-027 + Vorinostat; first compound 0.1 µM)	relative viability (OSI-027 + Vorinostat; first compound 0.3162 µM)	relative viability (OSI-027 + Vorinostat; first compound 1 µM)	relative viability (Alpelisib + Vorinostat; first compound 0.04 µM)	relative viability (Alpelisib + Vorinostat; first compound 0.1265 µM)	relative viability (Alpelisib + Vorinostat; first compound 0.4 µM)	relative viability (Alpelisib + Vorinostat; first compound 1.265 µM)	relative viability (Alpelisib + Vorinostat; first compound 4 µM)	relative viability (OSI-027 + Luminespib; first compound 0.01 µM)	relative viability (OSI-027 + Luminespib; first compound 0.03162 µM)	relative viability (OSI-027 + Luminespib; first compound 0.1 µM)	relative viability (OSI-027 + Luminespib; first compound 0.3162 µM)	relative viability (OSI-027 + Luminespib; first compound 1 µM)
LOU-NH91	0.743	0.702	0.758	0.627	0.59	0.858	0.913	0.69	0.712	0.479	0.936	0.785	0.823	0.715	0.556	0.312	0.308	0.333	0.306	0.315
LU99A	0.544	0.471	0.509	0.385	0.313	0.491	0.667	0.396	0.304	0.232	0.462	0.488	0.508	0.415	0.334	0.25	0.221	0.288	0.22	0.192
LXF-289	0.798	0.792	0.875	0.84	0.778	0.767	0.836	0.827	0.902	0.787	0.741	0.685	0.942	0.723	0.766	0.544	0.612	0.471	0.458	0.258
NCI-H23	0.565	0.497	0.425	0.428	0.432	0.58	0.232	0.406	0.398	0.303	0.634	0.441	0.411	0.414	0.332		0.215	0.188	0.203	0.225
NCI-H322M	0.797	0.955	0.892	0.708	0.693	0.869	0.863	0.748	0.663	0.624	0.897	0.962	0.954	0.733	0.634	0.84	0.831	0.66	0.446	0.369
NCI-H358	0.785	0.534	0.725	0.473	0.354	0.751	0.653	0.717	0.664	0.503	0.686	0.563	0.768	0.428	0.321	0.384	0.295	0.468	0.41	0.311
NCI-H441	0.743	0.567	0.746	0.432	0.435	0.837	0.77	0.757	0.741	0.431	0.681	0.716	0.961	0.603	0.401	0.367	0.393	0.307	0.235	0.236
NCI-H460	0.855	1.02	0.926	0.285	0.296	1.06	0.594	0.685	0.65	0.219	0.717	0.788	0.938	0.564	0.434	0.0335	0.032	0.0283	0.0249	0.0266

From the supplement of paper PMC10307832
